Test results as given in patent US12465050B2, “Compositions comprising a pyridine carboxylate herbicide and protoporphyrinogen oxidase (protox) inhibitor herbicides” (priority 2018, dated 2025).

Legend:
Assay type in all cases: in vivo
[1] = test system: Hordeum vulgare (spring barley); experiment: Greenhouse postemergence phytotoxicity on crop HORVS
Excerpt: (§1) Greenhouse Trial Methodology—Evaluation of Postemergence Herbicidal Effect
(§2) Seeds of the desired test plant species were planted in a 90:10% v/v (volume/volume) mixture of PRO-MIX® BX (Premier Tech Horticulture, Quakertown, Pa., USA) and PROFILE® GREENS GRADE™ (Profile Products LLC, Buffalo Grove, Ill., USA) planting mixture, which typically has a pH of 5.2 to 6.2 and an organic matter content of at least 50 percent, in plastic pots with a surface area of 103.2 square centimeters (cm^2). In some aspects or embodiments, to help ensure good germination and healthy plants, a fungicide treatment and/or other chemical or physical treatment was applied. The plants were grown for 7-36 days (d) in a greenhouse with an approximate 14-hour (h) photoperiod which was maintained at about 23° C. during the day and 22° C. during the night. Nutrients and water were added on a regular basis and supplemental lighting was provided with overhead metal halide 1000-Watt lamps as necessary. The plants were employed for testing when they reached the second or third true leaf stage.
(§3) Emulsifiable concentrates of each of each pyridine carboxylate herbicide (Compound A or Compound B) were prepared at 100 grams acid equivalent per liter (g ae/L). The emulsifiable concentrates also included a safener, cloquintocet mexyl, at 120 grams active ingredient per liter (g ai/L). An aliquot of each emulsifiable concentrate was placed in a 25 mL glass vial and diluted with an aqueous mixture of 1.25% (v/v) ACTIROB® B esterified rapeseed oil (Bayer Crop Science, Research Triangle Park, N.C., USA) or MSO® Concentrate with LECI-TECH® methylated soybean oil (Loveland Products, Loveland, Colo., USA) to obtain concentrated stock solutions at the highest application rate for each herbicide, based upon a 12 milliliter (mL) application volume at a rate of 187 liters per hectare (L/ha). The concentrated stock solutions were further diluted with an aqueous mixture of 1.25% v/v ACTIROB® B or MSO® Concentrate with LECI-TECH® to obtain stock solutions at reduced application rates for each herbicide. Spray solutions of the herbicide combinations (Compound A or Compound B plus PROTOX inhibitor herbicide) were prepared by adding weighed amounts or aliquots of the PROTOX inhibitor herbicides to the stock solutions of Compound A or Compound B to form 12-mL spray solutions in two-way combinations.
(§4) The spray solutions were applied to the plant material with an overhead Mandel track sprayer equipped with 8002E nozzles calibrated to deliver 187 L/ha over an application area of 0.503 square meters (m^2) at a spray height of 18 inches (43 centimeters (cm)) above the average plant canopy. Control plants were sprayed in the same manner with the solvent blank. All pyridine carboxylate herbicide (component a) application rates are given as “g ae/ha” and all PROTOX inhibitor herbicide (component b) application rates are given as “g ai/ha.”
(§5) The treated plants and control plants were placed in a greenhouse as described above and watered by sub-irrigation to prevent wash-off of the test compounds. After 20-22 d, the condition of the test plants as compared with that of the control plants was determined visually and scored on a scale of 0 to 100 percent where 0 corresponds to no injury and 100 corresponds to complete kill.

[2] = test system: Sinapis arvensis (wild mustard); experiment: Greenhouse postemergence herbicidal effect on SINAR
Excerpt: as §1, §2, §3, §4, §5

[3] = test system: Capsella bursa-pastoris (shepherd's purse); experiment: Greenhouse postemergence herbicidal effect on CAPBP; conditions: Compound A 0, Oxyfluorfen 560 g/ha
Excerpt: as §1, §2
as §3, with “combinations. […]” for “combinations.”
as §5

[4] = test system: Brassica napus (winter rape); experiment: Greenhouse postemergence herbicidal effect on BRSNW
Excerpt: as §1, §2, §3, §4, §5

[5] = test system: Stellaria media (chickweed); experiment: Greenhouse postemergence herbicidal effect on STEME; conditions: Compound A 0, Oxyfluorfen 560 g/ha
Excerpt: as §1, §2
as §3, with “combinations. […]” for “combinations.”
as §5

[6] = test system: Anthemis arvensis (corn chamomile); experiment: Greenhouse postemergence herbicidal effect on ANTAR; conditions: Compound A 0, Oxyfluorfen 560 g/ha
Excerpt: as §1, §2
as §3, with “combinations. […]” for “combinations.”
as §5

[7] = test system: Viola arvensis (field violet); experiment: Greenhouse postemergence herbicidal effect on VIOAR; conditions: Compound A 0, Oxyfluorfen 560 g/ha
Excerpt: as §1, §2
as §3, with “combinations. […]” for “combinations.”
as §5

[8] = test system: Matricaria inodora (scentless chamomile); experiment: Greenhouse postemergence herbicidal effect on MATIN; conditions: Compound A 0, Oxyfluorfen 560 g/ha
Excerpt: as §1, §2
as §3, with “combinations. […]” for “combinations.”
as §5

[9] = test system: Matricaria chamomilla (wild chamomile); experiment: Greenhouse postemergence herbicidal effect on MATCH
Excerpt: as §1, §2, §3, §4, §5

[10] = test system: Kochia scoparia (kochia); experiment: Greenhouse postemergence herbicidal effect on KCHSC
Excerpt: as §1, §2, §3, §4, §5

[11] = test system: Triticum aestivum (winter wheat); experiment: Greenhouse postemergence phytotoxicity on crop TRZAW; conditions: Compound A 0, Oxyfluorfen 560 g/ha
Excerpt: as §1, §2
as §3, with “combinations. […]” for “combinations.”
as §5

[12] = test system: Triticum aestivum (spring wheat); experiment: Greenhouse postemergence phytotoxicity on crop TRZAS
Excerpt: as §1, §2, §3, §4, §5

[13] = test system: Veronica persica (Persian speedwell); experiment: Greenhouse postemergence herbicidal effect on VERPE; conditions: Compound A 0, Oxyfluorfen 560 g/ha
Excerpt: as §1, §2
as §3, with “combinations. […]” for “combinations.”
as §5

[14] = test system: Cyanus segetum (cornflower); experiment: Greenhouse postemergence herbicidal effect on CENCY; conditions: Compound A 0, Oxyfluorfen 560 g/ha
Excerpt: as §1, §2
as §3, with “combinations. […]” for “combinations.”
as §5

[15] = test system: Veronica hederifolia (ivy-leaved speedwell); experiment: Greenhouse postemergence herbicidal effect on VERHE; conditions: Compound A 0, Oxyfluorfen 560 g/ha
Excerpt: as §1, §2
as §3, with “combinations. […]” for “combinations.”
as §5

[16] = test system: Papaver rhoeas (common poppy); experiment: Greenhouse postemergence herbicidal effect on PAPRH; conditions: Compound A 0, Oxyfluorfen 560 g/ha
Excerpt: as §1, §2
as §3, with “combinations. […]” for “combinations.”
as §5

[17] = test system: Papaver rhoeas (herbicide-resistant poppy); experiment: Greenhouse postemergence herbicidal effect on PAPRH-RES; conditions: Compound A 0, Oxyfluorfen 560 g/ha
Excerpt: as §1, §2
as §3, with “combinations. […]” for “combinations.”
as §5

[18] = test system: Cirsium arvense (Canadian thistle); experiment: Greenhouse postemergence herbicidal effect on CIRAR
Excerpt: as §1, §2, §3, §4, §5

[19] = test system: Lamium purpureum (purple deadnettle); experiment: Greenhouse postemergence herbicidal effect on LAMPU; conditions: Compound A 0, Oxyfluorfen 560 g/ha
Excerpt: as §1, §2
as §3, with “combinations. […]” for “combinations.”
as §5

[20] = test system: Salsola kali (Russian thistle); experiment: Greenhouse postemergence herbicidal effect on SASKR
Excerpt: as §1, §2, §3, §4, §5

[21] = test system: Polygonum convolvulus (wild buckwheat); experiment: Greenhouse postemergence herbicidal effect on POLCO
Excerpt: as §1, §2, §3, §4, §5

[22] = test system: Viola tricolor (wild pansy); experiment: Greenhouse postemergence herbicidal effect on VIOTR
Excerpt: as §1, §2, §3, §4, §5

[23] = test system: Matricaria discoidea (pineapple weed); experiment: Greenhouse postemergence herbicidal effect on MATMT; conditions: Compound A 0, Oxyfluorfen 560 g/ha
Excerpt: as §1, §2
as §3, with “combinations. […]” for “combinations.”
as §5

[24] = test system: Hordeum vulgare (winter barley); experiment: Greenhouse postemergence phytotoxicity on crop HORVW; conditions: Compound A 0, Oxyfluorfen 560 g/ha
Excerpt: as §1, §2
as §3, with “combinations. […]” for “combinations.”
as §5

[25] = test system: Amaranthus retroflexus (pigweed); experiment: Greenhouse postemergence herbicidal effect on AMARE; conditions: Compound A 0, Pyraflufen-ethyl 6 g/ha
Excerpt: as §1, §2, §3, §4, §5

[26] = test system: Chenopodium album L. (common lambsquarters); experiment: Greenhouse postemergence herbicidal effect on CHEAL
Excerpt: as §1, §2, §3, §4, §5

[27] = test system: Setaria faberi (giant foxtail); experiment: Greenhouse postemergence herbicidal effect on SETFA
Excerpt: as §1, §2, §3, §4, §5

[28] = test system: Brassica napus (spring rape); experiment: Greenhouse postemergence herbicidal effect on BRSNN; conditions: Compound A 0, Pyraclonil 42.5 g/ha
Excerpt: as §1, §2, §3, §4, §5

[29] = Compound A 0, Oxyfluorfen 560 g/ha
[30] = Compound A 0, Pyraflufen-ethyl 6 g/ha
[31] = Compound B 7.5, Saflufenacil 0 g/ha
[32] = Compound B 10, Saflufenacil 0 g/ha
[33] = Compound A 0, Pyraclonil 42.5 g/ha

Compound: CCOc1cc(Oc2ccc(C(F)(F)F)cc2Cl)ccc1[N+](=O)[O-] [Oxyfluorfen, 2-chloro-1-(3-ethoxy-4-nitrophenoxy)-4-(trifluoromethyl)benzene, reference compound]
- % visual injury, Obs [1, 29]: 70%
- % visual injury, Obs [2, 29]: 20%
- % visual injury, Obs [3]: 0%
- % visual injury, Obs [4, 29]: 20%
- % visual injury, Obs [5]: 0%
- % visual injury, Obs [6]: 5%
- % visual injury, Obs [7]: 40%
- % visual injury, Obs [8]: 0%
- % visual injury, Obs [9, 29]: 25%
- % visual injury, Obs [10, 29]: 55%
- % visual injury, Obs [11]: 20%
- % visual injury, Obs [12, 29]: 23%
- % visual injury, Obs [13]: 20%
- % visual injury, Obs [14]: 15%
- % visual injury, Obs [15]: 5%
- % visual injury, Obs [16]: 70%
- % visual injury, Obs [17]: 45%
- % visual injury, Obs [18, 29]: 35%
- % visual injury, Obs [19]: 10%
- % visual injury, Obs [20, 29]: 60%
- % visual injury, Obs [21, 29]: 80%
- % visual injury, Obs [22, 29]: 60%
- % visual injury, Obs [23]: 5%
- % visual injury, Obs [24]: 50%

Compound: CCOC(=O)COc1cc(-c2nn(C)c(OC(F)F)c2Cl)c(F)cc1Cl [Pyraflufen-ethyl, ethyl 2-chloro-5-[4-chloro-5-(difluoromethoxy)-1-methyl-1H-pyrazol-3-yl]-4-fluorophenoxyacetate, reference compound]
- % visual injury, Obs [1, 30]: 0%
- % visual injury, Obs [2, 30]: 0%
- % visual injury, Obs [4, 30]: 0%
- % visual injury, Obs [25]: 18%
- % visual injury, Obs [9, 30]: 0%
- % visual injury, Obs [10, 30]: 0%
- % visual injury, Obs [12, 30]: 0%
- % visual injury, Obs [26, 30]: 5%
- % visual injury, Obs [18, 30]: 10%
- % visual injury, Obs [20, 30]: 5%
- % visual injury, Obs [21, 30]: 0%

Compound: C#CCOC(=O)c1nc(-c2ccc3cc[nH]c3c2F)c(F)c(N)c1Cl [Compound B, propargyl 4-amino-3-chloro-5-fluoro-6-(7-fluoro-1H-indol-6-yl)pyridine-2-carboxylate]
- % visual injury, Obs [27, 31]: 70%
- % visual injury, Obs [27, 32]: 55%
- % visual injury, Obs [18, 31]: 45%
- % visual injury, Obs [18, 32]: 45%
- % visual injury, Obs [22, 31]: 10%
- % visual injury, Obs [22, 32]: 40%

Compound: C#CCN(C)c1c(C#N)cnn1-c1nn2c(c1Cl)CCCC2 [Pyraclonil, 1-(3-chloro-4,5,6,7-tetrahydropyrazolo[1,5-a]pyridin-2-yl)-5-[methyl-2-propynylamino]-1H-pyrazole-4-carbonitrile, reference compound]
- % visual injury, Obs [1, 33]: 28%
- % visual injury, Obs [2, 33]: 15%
- % visual injury, Obs [10, 33]: 15%
- % visual injury, Obs [28]: 23%
- % visual injury, Obs [12, 33]: 3%
- % visual injury, Obs [26, 33]: 15%
- % visual injury, Obs [20, 33]: 78%
- % visual injury, Obs [21, 33]: 20%
